Structures are written as SMILES.

Experimental findings from patent US20250368667A1, “USP1 INHIBITOR” (Shanghai Qilu Pharmaceutical Research and Development …, priority 2022, published 2025) are described below.

Data set [1] can be described thus: Pharmacokinetic determination in male Beagle dogs. It counts as in vivo. The conditions noted are these: dog, plasma, IV 0.2 mg/kg. As for the experimental part:
Test Example 4 Pharmacokinetic Determination of Compounds of the Present Application in Male Beagle Dogs
Male Beagle dogs were used as test animals. After intravenous injection and oral administration, plasma samples were collected at specific time points. The concentration of the compound in plasma was detected by LC-MS/MS, and the DMPK parameters were calculated to evaluate the pharmacokinetic characteristics of the compound in dog plasma.
Compounds of Table 6 in this application. […] The structural formula of KSQ-4279 is: […]
Male Beagle dogs having a weight of 9 to 13 kg, supplied by Beijing Mars Biotechnology Co., Ltd.
Administration information of the compound in this application: both group IV (intravenous injection group) and group PO (oral administration group) consist of 3 dogs; for group IV, the dosage was 0.2 mg/kg and the administration volume was 0.5 mL/kg; for group PO, the dosage was 3 mg/kg and the administration volume was 3 mL/kg. The administration solvent was 5 vol % DMSO+10 vol % Solutol (Kolliphor HS 15)+85 vol % Saline (physiological saline).
0.5 mL of blood was collected from the head vein in group IV at 0.083, 0.25, 0.5, 1, 2, 4, 8 and 24 hours respectively after administration, and from the head vein in group PO at 0.25, 0.5, 1, 2, 4, 8 and 24 hours respectively after administration. The collected samples were placed in EDTA-K2 test tube; plasma was separated by centrifuging at 2 to 8° C. and 2000 g for 10 minutes, which was then stored at −80° C. until analysis of the samples.
Dog plasma samples were treated by: • 1) adding 200 μL acetonitrile to 50 μL plasma sample for precipitation, vortex mixing the mixture for 30 seconds, and centrifuging at 4° C. and 3900 rpm for 15 minutes; and • 2) diluting the obtained supernatant with water for 3 folds, and analyzing the concentration of the compounds to be detected by LC/MS/MS.

For data set [2], the system named is OV0589 Patient-derived Xenograft (PDX). The data set can be described thus: Pharmacodynamic experiment of OV0589 patient-derived xenograft (PDX). It counts as in vivo, Female BALB/c nude mice. To be noted: oral, 100 mg/kg. The method, then: Test Example 5 Pharmacodynamic Experiment of OV0589 Patient-derived Xenograft (PDX)
Female BALB/c nude mice were used as test animals. After oral administration of the compound of this application, the tumor was measured and weighed regularly, and the tumor growth inhibition and tolerance in different administration groups were investigated. After the investigate, plasma and tumor were collected at a specific time point for pharmacokinetic analysis/pharmacodynamics (PK/PD) analysis.
Tumor-bearing mouse tumor (R10P8) was purchased from Sino-American Crown Biotechnology (Beijing) Co., Ltd. Ubiquityl-PCNA (Lys 164) (D5C7P) mAb antibody was purchased from Cell Siganaling company, and the article number is 13439S. PCNA (PC10) antibody was purchased from Santa Cruz company, and the article number is se-56.
Female BALB/c nude mice having a weight of between 21 and 25 g; supplier: Beijing An Kai Yibo Biotechnology Co., Ltd.
Under a temperature of 20° C. to 26° C. and a humidity of 30% to 70% and alternate illumination day and night, when the tumor (R10P8) of the tumor-bearing mice grew to a diameter of about 1 cm (the tumor size reaches 50 to 800 mm^3), the tumor was collected and cut into tumor blocks of about 2 to 3 mm^3, and the tumor block (R10P8) was inoculated subcutaneously into the right anterior scapula of female BALB/c nude mice. The tumor growth in mice was observed regularly. After 35 days of inoculation, when the tumor (R10P8) grew to an average volume of about 150 mm^3 (the range of enrollment was 86.54 mm^3 to […]), according to the tumor size and the weight of mice, StudyDirector™ (version No. 3.1.399.19, supplied by Studylog System, Inc., S. San Francisco, California, USA) was used for random grouping, and the administration was performed for these groups the next day.
Twelve mice were randomly divided into four groups, namely, G1 to G4. Group G1 is the solvent control group, and the solvent is: 10 vol % DMSO+20 vol % Solutol+70 vol % water+5 vol % DMSO+10 vol % Solutol+85 vol % saline. Group G2 was orally administrated with KSQ4279 at a dosage of 100 mg/kg (npk), and the solvent was 5 vol % DMSO+10 vol % Solutol+85 vol % saline.
The tumor growth in mice was observed regularly, and the tumor volume was measured (see FIG. 1), and the change of body weight of mice was observed regularly (see FIG. 2). After 36 days of administration, plasma and tumor were collected for PK/PD analysis.
For orientation: A xenograft is tissue or cells of one species grown in another, often human tumour cells in immunodeficient mice.

Data set [3] concerns the target recombinant human His6-USP1/His6-UAF1 composite protein (Homo sapiens (Human), UniProt O94782). Put plainly: USP1 enzyme activity detection (Ub-Rho fluorescence). The data set is classed as biochemical. The conditions noted are these: USP1/UAF1, Ub-Rho substrate 300 nM, 1 hour pre-incubation; read-out: IC50 (enzymatic inhibition of USP1).
Excerpt: USPli compounds were screened by USP1 enzyme activity detection experiment.
1.1 Experimental materials: recombinant human His6-USP1/His6-UAF1 composite protein. (R&D, catalog number E-568-050): Ubiquitin rhodamine 110 (Ub-Rho) (R&D, catalog number U-555-050); Fluorescent 384-well plate (Perkin Elmer, Art. No. 6007279).
1.2 Test sample: Compounds of table 3 in this application, whose structural formulae and preparation methods are shown in the above examples.
Using Equation (I) to fit data in Excel to obtain the inhibition value;
[formula] • wherein, the maximum signal value represents the luminous signal intensity of the positive control hole without adding the compound of the application; the minimum signal value represents the luminous signal intensity of the negative control hole without enzyme; and the target signal value represents the luminous signal intensity of the Test samples; and • fitting the data in XL-Fit with Equation (II) to obtain IC50 value:
[formula] • wherein Y is the inhibition rate, X is the concentration of the compound; Bottom is the lowest inhibition rate; Top is the highest inhibition rate; and HillSlope is the slope.

Chain of recombinant human His6-USP1/His6-UAF1 composite protein (O94782 whole entry): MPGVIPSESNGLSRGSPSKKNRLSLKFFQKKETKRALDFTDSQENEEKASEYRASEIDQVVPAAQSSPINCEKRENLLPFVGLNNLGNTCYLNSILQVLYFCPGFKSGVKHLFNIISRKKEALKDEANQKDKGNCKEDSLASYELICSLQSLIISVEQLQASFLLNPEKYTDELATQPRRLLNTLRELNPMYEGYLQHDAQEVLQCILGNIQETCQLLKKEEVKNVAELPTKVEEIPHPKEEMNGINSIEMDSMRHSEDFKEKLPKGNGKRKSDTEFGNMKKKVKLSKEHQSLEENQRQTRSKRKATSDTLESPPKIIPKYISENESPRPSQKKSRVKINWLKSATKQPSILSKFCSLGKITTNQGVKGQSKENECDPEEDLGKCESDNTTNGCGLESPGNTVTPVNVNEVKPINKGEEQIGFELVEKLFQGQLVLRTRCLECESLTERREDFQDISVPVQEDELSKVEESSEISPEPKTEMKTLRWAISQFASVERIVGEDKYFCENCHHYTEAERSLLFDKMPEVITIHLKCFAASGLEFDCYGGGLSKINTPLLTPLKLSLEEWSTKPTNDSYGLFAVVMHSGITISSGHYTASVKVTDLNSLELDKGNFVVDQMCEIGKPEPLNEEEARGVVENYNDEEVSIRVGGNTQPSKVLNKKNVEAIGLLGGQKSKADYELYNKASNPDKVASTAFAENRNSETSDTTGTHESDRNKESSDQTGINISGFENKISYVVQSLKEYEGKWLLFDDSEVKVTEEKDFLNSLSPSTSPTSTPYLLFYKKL
Chain of recombinant human His6-USP1/His6-UAF1 composite protein (Q8TAF3 whole entry partner): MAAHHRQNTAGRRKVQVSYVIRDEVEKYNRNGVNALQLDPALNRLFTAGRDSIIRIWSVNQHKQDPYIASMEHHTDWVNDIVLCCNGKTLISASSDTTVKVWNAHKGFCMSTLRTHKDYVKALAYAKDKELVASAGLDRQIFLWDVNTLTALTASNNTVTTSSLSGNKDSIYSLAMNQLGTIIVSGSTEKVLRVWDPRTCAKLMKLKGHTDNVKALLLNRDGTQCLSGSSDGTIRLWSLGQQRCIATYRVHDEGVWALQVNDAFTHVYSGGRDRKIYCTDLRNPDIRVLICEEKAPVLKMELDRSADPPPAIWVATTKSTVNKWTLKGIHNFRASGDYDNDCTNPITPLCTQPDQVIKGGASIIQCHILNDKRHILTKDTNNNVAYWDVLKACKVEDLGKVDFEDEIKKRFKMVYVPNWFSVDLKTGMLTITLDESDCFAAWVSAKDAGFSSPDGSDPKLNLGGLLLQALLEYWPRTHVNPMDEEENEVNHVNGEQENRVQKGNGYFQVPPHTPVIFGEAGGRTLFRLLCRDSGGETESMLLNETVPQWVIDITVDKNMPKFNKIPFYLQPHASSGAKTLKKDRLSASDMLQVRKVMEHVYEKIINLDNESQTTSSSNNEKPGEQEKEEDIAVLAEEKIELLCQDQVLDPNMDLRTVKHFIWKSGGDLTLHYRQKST

In data set [1], `COc1ncnc(C2CC2)c1-c1ncc2cnn(Cc3ccc(-c4nc(C(F)(F)F)cn4C(C)C)cc3)c2n1` [KSQ-4279, reference compound] displayed an AUC(0-t) of 124 ng·h/mL. The clearance in data set [1] (read-out: CL (overall clearance rate) (converted)) is 28.3 mL/min/kg. The “TGI % (tumor growth inhibition rate)” value in data set [2] (Day 36, OV0589 PDX in BALB/c nude mice) is on record as 85.7%. For the same compound, the “inhibitory effect on tumor growth (FIG. 1)” value in data set [2] (OV0589 PDX) was “obviously worse than compound 58 (dosage of 100 mg/kg)”.
Consider `COc1ncnc(C2CC2)c1-c1ncc2c3cn(C)nc3n(Cc3ccc(-c4nc(C(F)(F)F)cn4C)c(F)c3)c2n1` [Compound 118], for which the IC50 in data set [3] was found to be 3.57 nM.
Same read-out and setting: the same measure for `COc1ncnc(C2CC2)c1-c1ncc2c3ccncc3n(Cc3ccc4c(c3)CCCCn3cc(C(F)(F)F)nc3-4)c2n1` [Compound 90]: 3.65 nM; for `COc1ncnc(C2CC2)c1-c1ncc2c3cccc(F)c3n(Cc3ccc(-n4nc(C(F)(F)F)cc4C)cc3)c2n1` [Compound 49]: 21.2 nM.
With `COc1ncnc(C2CC2)c1-c1ncc2c3cccnc3n(Cc3ccc(-c4nc(C(F)(F)F)cn4C(C)C)cc3)c2n1` [Compound 36], in data set [3], the IC50 was found to be 8.98 nM.
With `COc1ncnc(C2CC2)c1-c1ncc2c3ccncc3n(Cc3ccc4c(c3)CCCn3cc(C(F)(F)F)nc3-4)c2n1` [Compound 61], the IC50 in data set [3] was found to be 3.14 nM.
Consider `COc1ncnc(C2CC2)c1-c1ncc2c3ccc(C(O)(C(F)(F)F)C(F)(F)F)cc3n(Cc3ccc(-c4nc(C(F)(F)F)cn4C)cc3)c2n1` [Compound 122], for which, in data set [3], the IC50 turned out to be 36 nM.
For the compound `COc1ncnc(C2CC2)c1-c1ncc2c3ccc(Cl)cc3n(Cc3ccc(-c4nc(C(F)(F)F)cn4C)cc3)c2n1` [Compound 54], the IC50 in data set [3] came out at 9.88 nM.
As for `COc1ncnc(C2CC2)c1-c1ncc2c3cc(F)cnc3n(Cc3ccc(-c4nc(C(F)(F)F)cn4C)cc3)c2n1` [Compound 117], in data set [3], the half-inhibitory concentration (IC50) came to 3.54 nM.
Regarding `COc1ncnc(C2CC2)c1-c1ncc2c3cc(C#N)ccc3n(Cc3ccc(-c4nc(C(F)(F)F)cn4C(C)C)cc3)c2n1` [Compound 12], the IC50 in data set [3] is 58.3 nM.
On to `COc1ncnc(C2CC2)c1-c1ncc2c3cc(F)cnc3n(Cc3ccc4c(c3)CCCn3cc(C(F)(F)F)nc3-4)c2n1` [Compound 146], for which the IC50 in data set [3] came to 11.6 nM.
Take `COc1ncnc(C2CC2)c1-c1ncc2c3ccncc3n(Cc3ccc(-c4nc(C(F)(F)F)c(C)n4C)cc3)c2n1` [Compound 151]: the IC50 in data set [3] amounted to 1 nM.
For `COc1ncnc(C2CC2)c1-c1ncc2c3ccc(C#N)cc3n(Cc3ccc(-c4nc(C(F)(F)F)c(C5CC5)n4C)cc3)c2n1` [Compound 164], the IC50 in data set [3] stood at 12 nM.
As for `COc1ncnc(C2CC2)c1-c1ncc2c3ccncc3n(Cc3ccc4c(c3)Cn3cc(C(F)(F)F)nc3-4)c2n1` [Compound 71], the IC50 in data set [3] is 108 nM.
For the compound `CN1CCc2cccc(-c3ncc4c5ccncc5n(Cc5ccc(-c6nc(C(F)(F)F)cn6C)cc5)c4n3)c21` [Compound 84], the IC50 in data set [3] was determined as 59 nM.
`COc1ncnc(C2CC2)c1-c1ncc2c3cn(C)nc3n(Cc3ccc(-c4nc(C(F)(F)F)sc4C)cc3)c2n1` [Compound 131]: the half-inhibitory concentration (IC50) in data set [3] came to 4.68 nM.
For the compound `CCn1cc(C(F)(F)F)nc1-c1ccc(Cn2c3nc(-c4c(OC)ncnc4C4CC4)ncc3c3cccc(F)c32)cc1` [Compound 35], the 50% inhibitory concentration (IC50) in data set [3] was 9.82 nM.
On to `COc1ncnc(C2CC2)c1-c1ncc2c3ccncc3n(Cc3ccc(-c4nc(C(F)(F)F)cn4C)cc3)c2n1` [Compound 78], for which the IC50 in data set [3] was 4.39 nM.
Turning to `CC(C)c1ncccc1-c1ncc2c3ccncc3n(Cc3ccc(-c4nc(C(F)(F)F)cn4C)cc3)c2n1` [Compound 80], in data set [3], the IC50 stood at 6.55 nM.
Regarding `COc1ncnc(C2CC2)c1-c1ncc2c3c(n(Cc4ccc(-c5nc(C(F)(F)F)cn5C)cc4)c2n1)CCC3` [Compound 31], in data set [3], the IC50 is 4.85 nM.
Regarding `COc1ncnc(C2CC2)c1-c1ncc2c3ccccc3n(Cc3ccc(-c4nc(C(F)(F)F)cn4C)cc3)c2n1` [Compound 1, 2-(4-cyclopropyl-6-methoxypyrimidin-5-yl)-9-(4-(1-methyl-4-(trifluoromethyl)-1H-imidazol-2-yl)benzyl)-9H-pyrimido[4,5-b]indole], in data set [3], the IC50 was 4.04 nM.
Take `COc1ncnc(C2CC2)c1-c1ncc2c3ccc(C(F)(F)F)cc3n(Cc3ccc(-c4nc(C(F)(F)F)cn4C)cc3)c2n1` [Compound 41]: the IC50 in data set [3] is 35.2 nM.
Regarding `COc1ncnc(C2CC2)c1-c1ncc2c3ccc(N4CC(OC)C4)nc3n(Cc3ccc4c(c3)CCCn3cc(C(F)(F)F)nc3-4)c2n1` [Compound 137], the IC50 in data set [3] was determined as 1.54 nM.
Turning to `COc1ncnc(C2CC2)c1-c1ncc2c3ccc(C#N)cc3n(Cc3ccc(-c4nc(C(F)(F)F)c5cnccn45)cc3)c2n1` [Compound 129], the IC50 in data set [3] amounted to 36 nM.
Consider `COc1ncnc(C2CC2)c1-c1ncc2c3cccc(Cl)c3n(Cc3ccc(-c4nc(C(F)(F)F)cn4C)cc3)c2n1` [Compound 44], for which, in data set [3], the IC50 was 4.22 nM.
Consider `COc1ncnc(C2CC2)c1-c1ncc2c3ccc(C#N)cc3n(Cc3ccc(-c4nc(C(F)(F)F)cn4C(C)C)cc3)c2n1` [Compound 51], for which, in data set [3], the 50% inhibitory concentration (IC50) was 5.9 nM.
As to `COc1ncnc(C2CC2)c1-c1ncc2c3c(F)cccc3n(Cc3ccc(-c4nc(C(F)(F)F)cn4C(C)C)cc3)c2n1` [Compound 4, 2-(4-cyclopropyl-6-methoxypyrimidin-5-yl)-5-fluoro-9-(4-(1-isopropyl-4-(trifluoromethyl)-1H-imidazol-2-yl)benzyl)-9H-pyrimido[4,5-b]indole], in data set [3], the IC50 stood at 6.85 nM.
Regarding `COc1ncnc(C2CC2)c1-c1ncc2c3ccncc3n(Cc3ccc4c(ccn5cc(C(F)(F)F)nc45)c3)c2n1` [Compound 67], the half-maximal inhibitory concentration (IC50) in data set [3] turned out to be 36.1 nM.
In the case of `COc1ncnc(C2CC2)c1-c1ncc2c3ccc(C)nc3n(Cc3ccc4c(c3)CCCn3cc(C(F)(F)F)nc3-4)c2n1` [Compound 128], the half-maximal inhibitory concentration (IC50) in data set [3] turned out to be 4.8 nM.
Take `CCn1cc(C(F)(F)F)nc1-c1ccc(Cn2c3ccccc3c3cnc(-c4c(OC)ncnc4C4CC4)nc32)cc1` [Compound 9, 2-(4-cyclopropyl-6-methoxypyrimidin-5-yl)-9-(4-(1-ethyl-4-(trifluoromethyl)-1H-imidazol-2-yl)benzyl)-9H-pyrimido[4,5-b]indole]: in data set [3], the IC50 turned out to be 4.07 nM.

Broadly, the AUC(0-t) is exposure summed from dosing to a finite time, without extrapolation to infinity. High values mean high exposure, low ones low exposure. What is called clearance is the volume of plasma or blood freed of the substance per unit of time. In general, IC50 refers to the midpoint of a concentration-inhibition curve.
